Measured values as given in patent publication US12479877B2, “Methods for purifying steviol glycosides and uses of the same” (PureCircle Sdn. Bhd., priority 2010, dated 2025).

Legend:
[1] = test system: panelists; assay: Sensory properties in acidified water (pH 3.0) at 500 mg/L, 20 panelists; format: in vivo, human; settings: 500 ppm, acidified water pH 3.0, 20 panelists
Experimental: The sensory properties of Reb X were evaluated in acidified water (pH 3.0 by phosphoric acid) at 500 mg/L concentration by 20 panelists.

[2] = test system: one experienced panelist; assay: Taste evaluation of Reb X against Reb A and Reb D, multi-sip and swallow taste method; format: in vivo, human
Experimental: The taste properties of a sample of Reb X were studied against Rebaudioside A (Reb A) and Rebaudioside D (Rb D) samples. Rb A was obtained from Cargill (lot #1040) and Reb-D was obtained from PureCircle (lot #11/3/08).
The samples were prepared at 500 ppm for sweetness evaluation by adding moisture compensated mass into a 100 mL sample of carbon-treated water and citric buffer solutions.
(§1) Citric buffer was prepared by mixing 1.171 g/L citric acid, 0.275 g/L sodium citrate and 0.185 g/L sodium benzoate with carbon-treated water, with a final pH of 3.22. The mixtures were moderately stirred at room temperature. The Reb X sample was then evaluated against the two control Reb A and Reb D samples in water and citric buffer at room temperature (RT) and at 4° C. in an ice bath by one experienced panelist for any tasting quality determinations using the controlled, multi-sip and swallow taste method shown below:
1. Take first sip (˜1.8 mL) of control and swallow. Wait for 15-25 sec, then take second sip of control and wait for 15-25 sec.
2. Take first sip of the experimental sample, wait for 15-25 sec, then take second sip. Compare to second sip of control.
3. Repeat steps #1 and #2 for the third and fourth sips of the control and experimental samples to confirm the initial finding.
The taste evaluation results of the Reb X samples against the control Reb A and Reb D samples at 500 ppm in citric buffer (CB) at 4° C. and RT are described in Table 4.

[3] = Solubility studies in carbon-treated water and citrate buffer; format: physicochemical
Experimental: as §1
The samples used to evaluate the taste properties in Example 2 were also used for solubility studies.

[4] = test system: one experienced taster; assay: Isosweetness determination of Reb X in citric buffer against sucrose controls; format: in vivo, human; settings: for Estimated % Sweetness Equivalence in Citric Buffer at 4° C.: citric buffer pH 3.1, 4° C.; for Estimated % Sweetness Equivalence in Citric Buffer at RT: citric buffer pH 3.1, RT
Experimental: (§2) The isosweetness levels of Reb X in a citric buffer system at room temperature and 4° C. were evaluated. A 600 ppm stock solution of Reb X was prepared by adding a mass of 0.15 g into a 250 mL sample of citric buffer (CB) solution. The mixture was moderately stirred at warmer temperature (up to ca. 52° C.) on a heated stirrer for about 15-20 minutes and then cooled. The citric buffer was prepared by adding 1.6 g citric acid, 0.6 g potassium citrate and 0.253 g sodium benzoate in 1 L of carbon-treated water. The pH of the mixture was 3.1. Seven diluted Reb X solutions at 12.5, 25, 50, 100, 200, 300, 400 and 500 ppm were prepared by adding a 2.08, 4.17, 8.33, 16.67, 25.00, 33.33 and 41.67 mL Reb X stock solution, respectively, into each 50 mL solution of CB. The controls of 0.75%, 2%, 4%, 6%, 8%, 10% and 15% sucrose equivalence (SE) were also prepared by adding sugar (w/v) into the CB. The mixtures were moderately stirred and then ready for the isosweetness determination test. The Reb X samples were then evaluated against the control sugar samples in citric buffer at room temperature (RT) and 4° C. (in an ice bath) by one experienced taster for an isosweetness determination using the controlled, multi-sip and swallow taste method.

[5] = Solubility of 600 ppm Reb X stock solution in citric buffer; format: physicochemical; settings: 0.06% (w/v) in citric buffer at up to 52° C. for ca. 15-20 minutes
Experimental: as §2, with “Seven diluted Reb X solutions at 12.5, 25, 50, 100, 200, 300, 400 and 500 ppm were prepared by adding a 2.08, 4.17, 8.33, 16.67, 25.00, 33.33 and 41.67 mL Reb X stock solution, respectively, into each 50 mL solution of CB.” left out
Despite the stronger mouthfeel or texture effect (syrupy, thicker) at ca. 15% sucrose, it was difficult to determine the isosweetness levels for at least 400 ppm of Reb X due to its thinner mouthfeel but broader and more impact sweetness temporal profile as well as its significant sweet lingering.

Estimated time to solubilize ([3]; 0.01% in carbon-treated water): 15 min | Estimated time to solubilize ([3]; 0.01% in citrate buffer): 25 min | Estimated time to solubilize ([3]; 0.02% in carbon-treated water): 25 min | Estimated time to solubilize ([3]; 0.02% in citrate buffer): 25 min | Estimated time to solubilize ([3]; 0.04% in carbon-treated water): 33 min | Estimated time to solubilize ([3]; 0.04% in citrate buffer): 35 min | Estimated time to solubilize ([3]; 0.05% in carbon-treated water): 39 min | Estimated time to solubilize ([3]; 0.05% in citrate buffer): 42 min | Estimated time to solubilize ([3]; 0.075% in carbon-treated water): 55 min | Estimated time to solubilize ([3]; 0.075% in citrate buffer): 55 min | Estimated time to solubilize ([3]; 0.10% in carbon-treated water): 106 min | Estimated time to solubilize ([3]; 0.10% in citrate buffer): 106 min | Estimated time to solubilize ([3]; 0.15% in carbon-treated water): Insoluble after 20 hours | Estimated time to solubilize ([3]; 0.15% in citrate buffer): Insoluble after 20 hours | Solubility and appearance [5]: very soluble and clear (colorless)
Structure (SMILES): C=C1C[C@@]23CCC4[C@](C)(C(=O)OC5OC(CO)C(O)C(OC6OC(CO)C(O)C(O)C6O)C5OC5OC(CO)C(O)C(O)C5O)CCC[C@@]4(C)[C@@H]2CCC1(OC1OC(CO)C(O)C(OC2OC(CO)C(O)C(O)C2O)C1OC1OC(CO)C(O)C(O)C1O)C3 (stereo partly drawn) [Reb X, (13-[2-O-β-D-glucopyranosyl-3-O-β-D-glucopyranosyl-β-D-glucopyranosyl)oxy] ent kaur-16-en-19-oic acid-[2-O-β-D-glucopyranosyl-3-O-β-D-glycopyranosyl) ester]
Astringent taste: Number of panelists detected the attribute [1]: 0 | Bitter taste: Number of panelists detected the attribute [1]: 0 | Licorice taste: Number of panelists detected the attribute [1]: 0 | Overall evaluation: Satisfactory (number of panelists of 20) [1]: (20 of 20) | Quality of sweet taste: Clean (number of panelists of 20) [1]: Clean (20 | Sweet Aftertaste: Number of panelists detected the attribute [1]: 0 | Taste profile compared to already known steviol glycosides [1]: superior taste profile | Taste quality at room temperature versus 4° C. ([2]; 500 ppm in citrate buffer): similar | Taste quality compared with Reb A and Reb D ([2]; 500 ppm in citrate buffer): much better than Reb A or Reb D | Sweet temporal profile and sweetness linger ([2]; 500 ppm in citrate buffer, compared with Reb A): fatty-like or broader sweet temporal profile and less sweetness linger than that of Reb A | Taste Properties ([2]; 500 ppm in citric buffer (pH 3.22), room temperature): Clean sweet taste. Broad and full sweetness profile. Moderate | Astringency, sweetness intense (depth) and bitterness notes ([2]; 500 ppm, citrate buffer system, compared with Reb A): did not have the astringency or sweetness intense (depth) and bitterness notes compared to that of the Reb A | Initial solubility test (comparative) ([3]; 500 ppm concentrations in citrate buffer): significantly greater solubility than that of Reb D and significantly less solubility than Reb A | Estimated % Sweetness Equivalence in Citric Buffer at 4° C. ([4]; Reb X 12.5 ppm): 0.75% | Estimated % Sweetness Equivalence in Citric Buffer at RT ([4]; Reb X 12.5 ppm): 0.5% | Estimated % Sweetness Equivalence in Citric Buffer at 4° C. ([4]; Reb X 25 ppm): 1.5% | Estimated % Sweetness Equivalence in Citric Buffer at RT ([4]; Reb X 25 ppm): 1.0-1.5% | Estimated % Sweetness Equivalence in Citric Buffer at 4° C. ([4]; Reb X 50 ppm): 3.0-3.5% | Estimated % Sweetness Equivalence in Citric Buffer at RT ([4]; Reb X 50 ppm): 3.25-3.75% | Estimated % Sweetness Equivalence in Citric Buffer at 4° C. ([4]; Reb X 100 ppm): 5.5% | Estimated % Sweetness Equivalence in Citric Buffer at RT ([4]; Reb X 100 ppm): 5.0% | Estimated % Sweetness Equivalence in Citric Buffer at 4° C. ([4]; Reb X 200 ppm): 8.0% | Estimated % Sweetness Equivalence in Citric Buffer at RT ([4]; Reb X 200 ppm): 8.0% | Estimated % Sweetness Equivalence in Citric Buffer at 4° C. ([4]; Reb X 300 ppm): 11.0-12.0% | Estimated % Sweetness Equivalence in Citric Buffer at RT ([4]; Reb X 300 ppm): 12.0% | Estimated % Sweetness Equivalence in Citric Buffer at 4° C. ([4]; Reb X 400 ppm): 14.0-14.5% | Estimated % Sweetness Equivalence in Citric Buffer at RT ([4]; Reb X 400 ppm): 14.0-14.5% | Estimated % Sweetness Equivalence in Citric Buffer at 4° C. ([4]; Reb X 500 ppm): 15.5-16.0% | Estimated % Sweetness Equivalence in Citric Buffer at RT ([4]; Reb X 500 ppm): 15.5-16.0% | Estimated % Sweetness Equivalence in Citric Buffer at 4° C. ([4]; Reb X 600 ppm): 16.5-17.0% | Estimated % Sweetness Equivalence in Citric Buffer at RT ([4]; Reb X 600 ppm): 16.5-17.0% | Sweetness intensity difference between RT and 4° C. ([4]; Reb X concentration range, direct comparison with control sucrose at similar temperatures): no significant sweetness intensity difference | Sweetness tasting quality ([4]; all concentrations (12.5-600 ppm) in citric buffer): pleasant sweetness tasting quality with a slight delay of sweetness onset and no bitterness | Off-flavors ([4]; any Reb X concentrations in CB at 4° C., except at least ca. 300 ppm): No off-flavors | Sweetness lingering ([4]; at least ca. 300 ppm Reb X in CB at 4° C.): longer sweetness lingering
